Data taken from patent US5284853A, “Angiotensin II receptor blocking 2,3,6 substituted quinazolinones” (American Cyanamid Company, priority 1993, dated 1994).
Values joined by “and” are separate entries in the source; they are usually repeats but may differ in a detail not shown here. Equal values may be shown once.

Test system: Angiotensin II (AII) vasopressor response
Experiment: AII Challenge: antagonism of the angiotensin II vasopressor response in conscious SHR
Format: in vivo, Spontaneously hypertensive rats (Male okamoto-Aoki SHR)
Conditions: for Average Change / Inhibition: n = 2; for Change / Control Before AII / Response After AII: per rat
[1] = 5 mg/kg I.V., AII 0.05 mcg/kg IV, 30 min post dose
[2] = 5 mg/kg I.V., AII 0.05 mcg/kg IV, 60 min post dose
[3] = 5 mg/kg I.V., AII 0.05 mcg/kg IV, 90 min post dose
[4] = 5 mg/kg I.V., AII 0.05 mcg/kg IV, 120 min post dose
[5] = 5 mg/kg I.V., AII 0.05 mcg/kg IV, 180 min post dose
[6] = 5 mg/kg I.V., AII 0.1 mcg/kg IV, 30 min post dose
[7] = 5 mg/kg I.V., AII 0.1 mcg/kg IV, 60 min post dose
[8] = 5 mg/kg I.V., AII 0.1 mcg/kg IV, 90 min post dose
[9] = 5 mg/kg I.V., AII 0.1 mcg/kg IV, 120 min post dose
[10] = 5 mg/kg I.V., AII 0.1 mcg/kg IV, 180 min post dose
[11] = 15 mg/kg I.V., AII 0.05 mcg/kg IV, 30 min post dose
[12] = 15 mg/kg I.V., AII 0.05 mcg/kg IV, 60 min post dose
[13] = 15 mg/kg I.V., AII 0.05 mcg/kg IV, 90 min post dose
[14] = 15 mg/kg I.V., AII 0.05 mcg/kg IV, 120 min post dose
[15] = 15 mg/kg I.V., AII 0.05 mcg/kg IV, 180 min post dose
[16] = 15 mg/kg I.V., AII 0.1 mcg/kg IV, 30 min post dose
[17] = 15 mg/kg I.V., AII 0.1 mcg/kg IV, 60 min post dose
[18] = 15 mg/kg I.V., AII 0.1 mcg/kg IV, 90 min post dose
[19] = 15 mg/kg I.V., AII 0.1 mcg/kg IV, 120 min post dose
[20] = 15 mg/kg I.V., AII 0.1 mcg/kg IV, 180 min post dose

In the case of `CCCCc1nc2ccc(C3CC(c4ccc(C)o4)=NO3)cc2c(=O)n1Cc1ccc(-c2ccccc2-c2nnn[nH]2)cc1` (stereo not shown) [Example 19], the “Average Change” value [1] is reported as 15.5 mmhg, the Inhibition [1] is reported as 72% and the Change [1] is reported as 11 mmhg and 20 mmhg. For the same compound, the “Control Before AII” value [1] was 165 mmhg and 200 mmhg, the “Response After AII” value [1] was 176 mmhg and 180 mmhg and the “Average Change” value [2] was 15 mmhg. For the same compound, the Inhibition [2] was 73%, the Change [2] was 20 mmhg and 10 mmhg and the “Control Before AII” value [2] was 160 mmhg and 195 mmhg. The “Response After AII” value [2] was 180 mmhg and 205 mmhg, the “Average Change” value [3] was 20 mmhg and the Inhibition [3] was 64%. For the same compound, the Change [3] was 25 mmhg and 15 mmhg, the “Control Before AII” value [3] was 155 mmhg and 190 mmhg and the “Response After AII” value [3] was 180 mmhg and 205 mmhg. The “Average Change” value [4] was 25 mmhg, the Inhibition [4] was 55% and the Change [4] was 35 mmhg and 15 mmhg. For the same compound, the “Control Before AII” value [4] was 150 mmhg and 175 mmhg, the “Response After AII” value [4] was 185 mmhg and 190 mmhg and the “Average Change” value [5] was 25 mmhg. For the same compound, the Inhibition [5] was 55%, the Change [5] was 33 mmhg and 17 mmhg and the “Control Before AII” value [5] was 165 mmhg and 185 mmhg. For the same compound, the “Response After AII” value [5] was 198 mmhg and 202 mmhg, the “Average Change” value [6] was 17.5 mmhg and the Inhibition [6] was 83%. For the same compound, the Change [6] was 20 mmhg and 15 mmhg, the “Control Before AII” value [6] was 160 mmhg and 205 mmhg and the “Response After AII” value [6] was 180 mmhg and 220 mmhg. For the same compound, the “Average Change” value [7] was 21 mmhg, the Inhibition [7] was 68% and the Change [7] was 25 mmhg and 17 mmhg. For the same compound, the “Control Before AII” value [7] was 160 mmhg and 193 mmhg, the “Response After AII” value [7] was 185 mmhg and 210 mmhg and the “Average Change” value [8] was 24 mmhg. For the same compound, the Inhibition [8] was 63%, the Change [8] was 25 mmhg and 23 mmhg and the “Control Before AII” value [8] was 175 mmhg and 187 mmhg. For the same compound, the “Response After AII” value [8] was 200 mmhg and 210 mmhg, the “Average Change” value [9] was 22.5 mmhg and the Inhibition [9] was 65%. For the same compound, the Change [9] was 20 mmhg and 25 mmhg, the “Control Before AII” value [9] was 165 mmhg and 175 mmhg and the “Response After AII” value [9] was 185 mmhg and 200 mmhg. The “Average Change” value [10] was 27.5 mmhg, the Inhibition [10] was 58% and the Change [10] was 25 mmhg and 30 mmhg. The “Control Before AII” value [10] was 170 mmhg and 185 mmhg, the “Response After AII” value [10] was 195 mmhg and 215 mmhg and the “Average Change” value [11] was 5 mmhg. For the same compound, the Inhibition [11] was 83%, the Change [11] was 0 mmhg and 10 mmhg and the “Control Before AII” value [11] was 165 mmhg and 150 mmhg. The “Response After AII” value [11] was 165 mmhg and 160 mmhg, the “Average Change” value [12] was 10 mmhg and the Inhibition [12] was 67%. The Change [12] was 10 mmhg, the “Control Before AII” value [12] was 155 mmhg and 150 mmhg and the “Response After AII” value [12] was 165 mmhg and 160 mmhg. The “Average Change” value [13] was 5 mmhg, the Inhibition [13] was 83% and the Change [13] was 5 mmhg. For the same compound, the “Control Before AII” value [13] was 155 mmhg and 150 mmhg, the “Response After AII” value [13] was 160 mmhg and 155 mmhg and the “Average Change” value [14] was 7.5 mmhg. The Inhibition [14] was 75%, the Change [14] was 5 mmhg and 10 mmhg and the “Control Before AII” value [14] was 150 mmhg. For the same compound, the “Response After AII” value [14] was 155 mmhg and 160 mmhg, the “Average Change” value [15] was 7.5 mmhg and the Inhibition [15] was 75%. The Change [15] was 0 mmhg and 15 mmhg, the “Control Before AII” value [15] was 160 mmhg and 140 mmhg and the “Response After AII” value [15] was 160 mmhg and 155 mmhg. For the same compound, the “Average Change” value [16] was 5 mmhg, the Inhibition [16] was 89% and the Change [16] was 0 mmhg and 10 mmhg. The “Control Before AII” value [16] was 165 mmhg and 160 mmhg, the “Response After AII” value [16] was 165 mmhg and 170 mmhg and the “Average Change” value [17] was 5 mmhg. For the same compound, the Inhibition [17] was 89%, the Change [17] was 0 mmhg and 10 mmhg and the “Control Before AII” value [17] was 165 mmhg and 160 mmhg. For the same compound, the “Response After AII” value [17] was 165 mmhg and 170 mmhg, the “Average Change” value [18] was 7.5 mmhg and the Inhibition [18] was 83%. For the same compound, the Change [18] was 10 mmhg and 5 mmhg, the “Control Before AII” value [18] was 155 mmhg and 150 mmhg and the “Response After AII” value [18] was 165 mmhg and 155 mmhg. For the same compound, the “Average Change” value [19] was 7.5 mmhg, the Inhibition [19] was 83% and the Change [19] was 10 mmhg and 5 mmhg. For the same compound, the “Control Before AII” value [19] was 155 mmhg, the “Response After AII” value [19] was 165 mmhg and 160 mmhg and the “Average Change” value [20] was 10 mmhg. The Inhibition [20] was 78%, the Change [20] was 0 mmhg and 20 mmhg and the “Control Before AII” value [20] was 170 mmhg and 150 mmhg. The “Response After AII” value [20] was 170 mmhg.
